Experimental findings from patent US20090076029A1 (Palatin Technologies, Inc., priority 2007, published 2009) are described below.

Read-outs that look alike come from different tables or passages of the source.

Assay type in all cases: binding, human
In one assay the target is T1, hMC3-R.
T1 construct: expressed in transfected cells; host or cells: HEK-293
Put plainly: Competitive inhibition assay using [I125]-NDP-α-MSH, hMC3-R membranes. The conditions noted are these: read-out: Ki (nM) (NDP-α-MSH) MC3-R. Summed up: (§1)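 Membranes from HEK-293 cells expressing hMC3-R, hMC4-R or hMC5-R, or from mouse B-16 melanoma cells (MC1-R), with 0.2–0.4 nM [125I]-NDP-α-MSH in 50 mM HEPES pH 7.2 with Mg2+, Ca2+, K+. Test compound typically 1 μM; 90 min, room temperature; filtration, gamma counting. Percent inhibition vs specific binding (1 μM α-MSH), triplicate mean, negatives as 0%.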

In assay [1] the target is T2, hMC4-R.
T2 construct: expressed in transfected cells; host or cells: HEK-293
Nature of the assay: Competitive inhibition assay using [I125]-NDP-α-MSH, hMC4-R membranes.

In a further assay the target is T3, hMC5-R.
T3 construct: expressed in transfected cells; host or cells: HEK-293
Put plainly: Competitive inhibition assay using [I125]-NDP-α-MSH, hMC5-R membranes. The conditions noted are these: read-out: Ki (nM) (NDP-α-MSH) MC5-R. Summed up:
as §1

In assay [2] the test system is T2, hMC4-R. The note with it: for Inhibition at 1 μM (AgRP) MC4-R: 1 μM compound. Summed up: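 Membranes from hMC4-R-expressing cells incubated 1 h at 37 °C with 0.2 nM [I^125]-AgRP (83-132) and increasing compound in 25 mM HEPES pH 7.5, 100 mM NaCl, 2 mM CaCl2, 2 mM MgCl2, 0.3 mM 1,10-phenanthroline, 0.5% BSA. Filtration, gamma counting; specific binding kept ≤10% of added counts.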

Where [3] appears, read: MC4-R membranes, Table 1, read-out: Ki (nM) I125-NPD-α-MSH.
[4] abbreviates: read-out: Ki (nM) (NDP-α-MSH) MC4-R.
Setting [5] is: MC4-R membranes, Table 1, read-out: Ki (nM) I125-AgRP.

On to `CC(C)C[C@@H]1CN(C(=O)[C@H](N)Cc2ccc(Cl)cc2Cl)[C@@H](CCCNC(=N)N)CN1CCc1ccc2ccccc2c1` [Example 4, N-{3-[1-[2(R)-Amino-3-(2,4-dichloro-phenyl)-propionyl]-5(R)-isobutyl-4-(2-naphthalen-2-yl-ethyl)-piperazin-2(S)-yl]-propyl}-guanidine], for which the Ki (as a rule, a measure of affinity in units of concentration, obtained from inhibition or displacement) on hMC3-R turned out to be 87 nM; at hMC4-R [1] (setting [3]), 5 nM; at hMC4-R [1] (setting [4]), 5 nM; at hMC5-R, 160 nM; on hMC4-R [2] (setting [5]) it was 6 nM; on hMC4-R [2] (read-out: Ki (nM) (AgRP) MC4-R), 6 nM. Also, the Inhibition – broadly, the drop in the measured response relative to a control, in per cent – at 1 μM (AgRP) MC4-R with hMC4-R [2] is listed as 100%.
On to `CC(=O)N[C@H](Cc1ccc(C)cc1C)C(=O)N1C[C@@H](C)N(CCc2ccc3ccccc3c2)C[C@@H]1CCCNC(=N)N` [Example 26, N-{1(R)-(2,4-Dimethyl-benzyl)-2-[2(S)-(3-guanidino-propyl)-5(R)-methyl-4-(2-naphthalen-2-yl-ethyl)-piperazin-1-yl]-2-oxo-ethyl}-acetamide], for which the Ki on hMC3-R came to 74 nM; on hMC4-R [1] (setting [3]) it was 1 nM; on hMC4-R [1] (setting [4]), 1 nM; on hMC5-R it was 43 nM; at hMC4-R [2] (setting [5]) it was 3 nM; on hMC4-R [2] (read-out: Ki (nM) (AgRP) MC4-R) it was 0.18 nM. Also, in the assay on hMC4-R [2], the “Inhibition at 1 μM (AgRP) MC4-R” value amounted to 100%.
As to `Cc1ccc(C[C@@H](N)C(=O)N2C[C@@H](C)N(CCc3ccc4ccccc4c3)C[C@@H]2CCCNC(=N)N)c(C)c1` [Example 28, N-{3-[1-[2(R)-Amino-3-(2,4-dimethyl-phenyl)-propionyl]-5(R)-methyl-4-(2-naphthalen-2-yl-ethyl)-piperazin-2(S)-yl]-propyl}-guanidine], the Ki on hMC3-R was found to be 167 nM; on hMC5-R it was 665 nM; at hMC4-R [2] (setting [5]), 3 nM; on hMC4-R [2] (read-out: Ki (nM) (AgRP) MC4-R), 3 nM. For the same compound, the “attenuation of binding of α-MSH and AgRP to MC4-R” value in the assay with hMC4-R [1] (both ligands (NDP-α-MSH and AgRP), summary) is “attenuate the binding of both α-MSH and AgRP to MC4-R”. Further, in the assay on hMC4-R [2], the “Inhibition at 1 μM (AgRP) MC4-R” value is recorded as 100%.
